We go through one molecule from ChEMBL document CHEMBL1649539, “Pharmacokinetics-pharmacodynamics of pyrazinamide in a novel in vitro model of tuberculosis for sterilizing effect: a paradigm for faster assessment of new antituberculosis drugs” (Antimicrob Agents Chemother, 2009).

Series [1] relates to Mycobacterium tuberculosis. The series can be described thus: Antimycobacterial activity against Mycobacterium tuberculosis H37Rv isolated from patient with tuberculosis assessed as bacterial load per day at >= 15 mg/kg, po after 4 days. Type of series: functional.
Series [2] in a line: Absorption rate constant in Mycobacterium tuberculosis H37Rv. The class given is ADME.
The nature of series [3]: Volume of distribution in Mycobacterium tuberculosis H37Rv. Type of series: ADME, organism-based. Conditions: in vivo.
Series [4] can be described thus: Ratio of AUC (0 to 24 hrs) to MIC associated with 1 log10CFU/ml bacterial count in patient infected with Mycobacterium tuberculosis H37Rv. Type of series: functional.
Series [5] is described as follows: Clearance in Mycobacterium tuberculosis H37Rv. Type of series: ADME.
Series [6] in a line: Ratio of AUC (0 to 24 hrs) to MIC associated with 2 log10CFU/ml bacterial count in patient infected with Mycobacterium tuberculosis H37Rv. Type of series: functional.
Series [7] concerns Mycobacterium tuberculosis. The series can be described thus: Antimycobacterial activity against Mycobacterium tuberculosis H37Rv isolated from patient with tuberculosis at >= 15 mg/kg, po after 14 to 21 days. The class given is functional, organism-based. Details: dose 15 mg/kg.
In series [8] the test system is Mycobacterium tuberculosis. The series can be described thus: Antimycobacterial activity against Mycobacterium tuberculosis H37Rv isolated from patient with tuberculosis assessed as bacterial load per day at 15 to 30 mg/kg, po after 2.5 to 3 weeks. The class given is functional.
The nature of series [9]: Ratio of AUC (0 to 24 hrs) to MIC associated with 0.5 log10CFU/ml bacterial count in patient infected with Mycobacterium tuberculosis H37Rv. Type of series: functional.
Series [10] in a line: Elimination rate constant in Mycobacterium tuberculosis H37Rv. The class given is ADME.

Structures are written as SMILES. Calls of active or inactive are those of the source. The calls are words filed in the database; no cut-off is given here.

As a reminder, the Vd is a proportionality between amount in the body and measured concentration, not a real space. The term clearance denotes the volume of plasma or blood freed of the substance per unit of time. As for `NC(=O)c1cnccn1` [PYRAZINAMIDE], the log10CFU/ml/day is reported as 0.05 in series [1] and 0.09 in series [8]. For the same molecule, the Ka in series [2] turned out to be 3.45 h⁻¹. The Vd in series [3] is 1.68 L/kg. Besides, the figures for the log10CFU/ml in series [4], in [6] and in series [9] were 20.26, 66.67 and 9.43, respectively. The clearance in series [5] is 0.1 L/h/kg. The result in [7] was inactive. This molecule also gave a k el in series [10] of 1.67e-05 s⁻¹.
